Source: patent publication US20110201656A1, “NOVEL DIPHENYL 1,2,3-TRIAZOLE DERIVATIVES USEFUL AS MODULATORS OF NICOTINIC ACETYLCHOLINE RECEPTORS” (NEUROSEARCH A/S, priority 2008, published 2011)

What was measured:
[1] = target: T1, wild-type nAChR α7 receptors (Homo sapiens, UniProt P36544); assay: Positive modulation of nAChR α7 currents in Xenopus laevis oocytes (two-electrode voltage clamp); assay type: cell-based; conditions: nAChR α7 expressed in Xenopus laevis oocytes, clamped at −60 mV, 100 μM acetylcholine; for Emax: (test-control)/control×100%, read-out: calculated EC50 Imax (maximal modulation of the control response); for EC50: test compound 0.01-31.6 μM, read-out: calculated EC50 (positive modulation of acetylcholine-induced current)
T1 construct: expressed in transfected cells; host or cells: Xenopus laevis oocytes
Experimental: In this example the positive modulation of wild-type nAChR α7 receptors by Compounds 3, 7 and 8, representative of the invention, was determined using nAChR a7 receptors heterologously expressed in Xenopus laevis oocytes.
The electrical current through the nAChR α7 channel was measured using conventional two-electrode voltage clamp and nAChR α7 currents were activated by applying pulses of agonist-containing solution onto the nAChR α7 expressing oocyte.
In brief, the oocytes were placed in a recording chambers and continuously super-fused with an Oocyte Ringer (OR) solution containing 90 mM NaCl, 2.5 mM KCl, 2.5 mM CaCl2, 1 mM MgCl2 and 5 mM HEPES (pH adjusted to 7.4). The oocytes were clamped at −60 mV and currents were induced by applying 20 s pulses of 100 μM acetylcholine dissolved in OR. The intervals between the acetylcholine applications were 5 minutes, during which the oocytes were washed with OR. The first three applications were control applications to insure a constant response level of 100 μM acetylcholine. For the subsequent test applications, increasing concentrations (0.01-31.6 μM) of the test compound were applied 30 s before and during the acetylcholine (100 μM) application, which caused a robust increase in the acetylcholine-induced current amplitude.
The positive modulation in the presence of Compound 4 was calculated as (test-control)/control×100% and the concentration response curve for this positive modulation was fitted to the sigmoidal logistic equation: I=Imax/(1+(EC50/[compound])^n), where Imax represents the maximal modulation of the control response, EC50 is the concentration causing a half maximal response, and n is the slope coefficient.

T1 sequence (P36544 23-502): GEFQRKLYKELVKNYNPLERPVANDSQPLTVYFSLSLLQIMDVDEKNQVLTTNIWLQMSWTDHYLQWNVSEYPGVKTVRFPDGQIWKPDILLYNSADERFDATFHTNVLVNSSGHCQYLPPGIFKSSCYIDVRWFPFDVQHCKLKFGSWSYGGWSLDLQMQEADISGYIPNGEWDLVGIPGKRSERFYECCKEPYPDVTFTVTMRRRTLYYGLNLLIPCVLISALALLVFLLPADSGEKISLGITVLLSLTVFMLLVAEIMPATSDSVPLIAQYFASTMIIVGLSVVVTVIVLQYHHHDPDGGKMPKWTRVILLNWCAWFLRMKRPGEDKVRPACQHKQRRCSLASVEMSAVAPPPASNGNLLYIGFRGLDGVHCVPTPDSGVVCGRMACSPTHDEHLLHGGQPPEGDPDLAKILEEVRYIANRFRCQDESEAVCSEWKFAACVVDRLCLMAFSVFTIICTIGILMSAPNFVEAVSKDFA

Row | melting point [°C] | Emax [1] [%] | EC50 [1] [µM] | SMILES
1 | 96.5 to 98.9 | – | – | COc1ccc(-c2nnn(-c3ccc(C(F)(F)F)cc3F)c2C)cc1 [Compound 1, 1-(2-Fluoro-4-trifluoromethyl-phenyl)-4-(4-methoxy-phenyl)-5-methyl-1H-[1,2,3]triazole]
2 | – | 119 | 14 | Cc1c(-c2ccc(O)cc2)nnn1-c1ccc(C(F)(F)F)cc1Cl [Compound 3, 4-[1-(2-Chloro-4-trifluoromethyl-phenyl)-5-methyl-1H-[1,2,3]triazol-4-yl]-phenol]
3 | – | 128 | 17 | COc1ccc(-c2nnn(-c3ccc(C(F)(F)F)cc3Cl)c2CO)cc1 [Compound 7, [3-(2-Chloro-4-trifluoromethyl-phenyl)-5-(4-methoxy-phenyl)-3H-[1,2,3]triazol-4-yl]-methanol]
4 | – | 136 | 11 | OCc1c(-c2ccc(O)cc2)nnn1-c1ccc(C(F)(F)F)cc1Cl [Compound 8, 4-[1-(2-Chloro-4-trifluoromethyl-phenyl)-5-hydroxymethyl-1H-[1,2,3]triazol-4-yl]-phenol]
